Counter-ions that a name gives are not always drawn. Like-named read-outs stand apart in the source and are kept apart here.
Legend:
[1] = target: T1, E. feacium DltA (Enterococcus faecium, UniProt Q3XZT7); assay: in vitro DltA activity assay (luminescence, IC50 determination); type: biochemical
T1 sequence (Q3XZT7 1-504): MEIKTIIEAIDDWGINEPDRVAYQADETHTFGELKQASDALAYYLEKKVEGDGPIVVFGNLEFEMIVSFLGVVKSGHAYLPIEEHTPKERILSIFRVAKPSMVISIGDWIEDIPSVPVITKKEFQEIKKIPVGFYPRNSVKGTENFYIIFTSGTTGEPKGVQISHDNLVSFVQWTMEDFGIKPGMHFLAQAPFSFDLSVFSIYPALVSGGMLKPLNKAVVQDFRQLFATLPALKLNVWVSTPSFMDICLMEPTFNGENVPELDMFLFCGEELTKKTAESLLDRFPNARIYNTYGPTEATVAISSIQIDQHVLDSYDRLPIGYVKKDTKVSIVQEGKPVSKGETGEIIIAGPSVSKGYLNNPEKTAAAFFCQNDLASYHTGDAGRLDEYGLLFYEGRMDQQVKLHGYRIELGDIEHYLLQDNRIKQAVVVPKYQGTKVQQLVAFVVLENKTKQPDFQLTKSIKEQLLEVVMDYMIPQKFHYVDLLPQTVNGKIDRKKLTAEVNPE
Procedure: (§1) The effect of the compounds of the invention on DltA enzymes has been based on the measure of their inhibition of DltA activity in vitro. To this end, recombinant proteins DltA were expressed and purified after cloning of the genes of S. aureus, E. faecalis, E. faecium and S. agalactiae as described thereafter. The capacity of the compounds of the invention to inhibit DltA enzymatic activity was assessed using the DltA assays as described below: • The dltA gene was amplified from chromosomal DNA of S. aureus, E. faecalis, E. faecium and S. agalactiae and introduced into E. coli BL21 (Invitrogen, Carlsbad, CA) following manufacturer's instruction. Bacteria were grown at 37°C under aerobic conditions and isopropyl-beta-D-thiogalactopyranoside (IPTG) was added to 0.5-1 mM when OD600 of the bacterial culture had reached 0.5. After a further incubation for 3 hours, cells were harvested by centrifugation. Purification of the recombinant DltA protein was performed by affinity chromatography on nickel-nitrilotriacetic acid (Ni-NTA) column following manufacturer's instructions (Qiagen). Fractions containing recombinant DltA protein were adjusted to 50% glycerol and stored at -20°C until use.
(§2) The binding potency of the inhibitors against DltA enzyme was assessed by IC50 determination in an in vitro DltA activity assay. The assay buffer "AB" contained 50 mM Hepes pH8.0, 10mM MgCl2, 50mM KCI, 0.012% Triton-X100, 10mM DTT and 100nM Myelin-basic protein. The following components were added in a white polystyrene Costar plate up to a final volume of 30µL: 3µL DMSO, or inhibitor dissolved in DMSO and 27µL DltA enzyme in AB. After 30min of preincubation at room temperature, 30µL of Substrates mix in AB were added in each well to a final volume of 60µL. This reaction mixture was then composed of DltA (produced in house from S. aureus, E. faecalis, E. faecium and S. agalactiae), 0.5mM D-Alanine (Sigma), 0.5-5µM ATP (Sigma) and 0.05 u/ml inorganic pyrophosphatase (Sigma) in assay buffer. After typically 1-2hours of incubation at room temperature (conversion rate around 30%), 30µL of the revelation mix were added to a final volume of 90µL, including the following constituents at the respective final concentrations: 10000 u/ml luciferase (Sigma), 30µM D-luciferin (Sigma), 100µM N-acetylcysteamine (Aldrich). Luminescence intensity was immediately measured on a Fluostar Optima (BMG) (excitation 360nm, emission 520nm) and converted into inhibition percentages.
(§3) For compounds interfering with the luminescent signal (quenching), the same experiment without DltA enzyme was performed to allow quenching determination and correction.

[2] = target: T2, S. aureus DltA (Staphylococcus aureus, UniProt Q2FZW6); assay: as above; type: biochemical
T2 construct: made in house; host or cells: E. coli BL21
T2 sequence (Q2FZW6 1-485): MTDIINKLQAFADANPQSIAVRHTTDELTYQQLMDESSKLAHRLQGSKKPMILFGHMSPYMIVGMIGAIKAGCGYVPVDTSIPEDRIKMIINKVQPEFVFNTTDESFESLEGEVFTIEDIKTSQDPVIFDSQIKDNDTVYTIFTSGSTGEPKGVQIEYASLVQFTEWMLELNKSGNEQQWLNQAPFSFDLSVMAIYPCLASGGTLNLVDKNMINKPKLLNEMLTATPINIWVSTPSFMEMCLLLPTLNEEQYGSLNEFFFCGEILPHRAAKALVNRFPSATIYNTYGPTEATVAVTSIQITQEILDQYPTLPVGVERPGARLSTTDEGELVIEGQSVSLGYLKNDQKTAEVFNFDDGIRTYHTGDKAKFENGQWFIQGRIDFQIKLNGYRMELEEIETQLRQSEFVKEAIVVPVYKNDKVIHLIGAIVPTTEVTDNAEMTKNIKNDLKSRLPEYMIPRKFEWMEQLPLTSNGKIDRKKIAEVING
Procedure: as §1, §2, §3

[3] = target: T3, E. feacalis DltA (Enterococcus faecalis, UniProt Q830N0); assay: biochemical
T3 sequence (Q830N0 1-506): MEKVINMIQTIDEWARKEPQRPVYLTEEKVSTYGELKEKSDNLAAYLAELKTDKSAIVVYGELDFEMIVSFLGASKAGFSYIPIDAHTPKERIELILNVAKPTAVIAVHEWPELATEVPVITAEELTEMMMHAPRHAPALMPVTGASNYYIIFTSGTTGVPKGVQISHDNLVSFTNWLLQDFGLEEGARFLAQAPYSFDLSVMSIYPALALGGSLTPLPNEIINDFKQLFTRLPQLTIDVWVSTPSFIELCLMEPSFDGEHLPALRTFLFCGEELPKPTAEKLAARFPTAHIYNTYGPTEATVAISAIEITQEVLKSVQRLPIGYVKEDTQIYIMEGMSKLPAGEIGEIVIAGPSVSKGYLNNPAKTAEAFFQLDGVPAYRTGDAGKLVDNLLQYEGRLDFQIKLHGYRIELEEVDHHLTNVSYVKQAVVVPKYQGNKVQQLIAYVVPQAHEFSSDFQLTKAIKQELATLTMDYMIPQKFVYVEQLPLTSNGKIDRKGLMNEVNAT
Procedure: as §1, with “To” for “The effect of the compounds of the invention on DltA enzymes has been based on the measure of their inhibition of DltA activity in vitro. To”
as §2, §3

[4] = target: T4, S. Agalactiae DltA (Streptococcus agalactiae serotype III, UniProt Q8VM67); assay: biochemical
T4 sequence (Q8VM67 1-511): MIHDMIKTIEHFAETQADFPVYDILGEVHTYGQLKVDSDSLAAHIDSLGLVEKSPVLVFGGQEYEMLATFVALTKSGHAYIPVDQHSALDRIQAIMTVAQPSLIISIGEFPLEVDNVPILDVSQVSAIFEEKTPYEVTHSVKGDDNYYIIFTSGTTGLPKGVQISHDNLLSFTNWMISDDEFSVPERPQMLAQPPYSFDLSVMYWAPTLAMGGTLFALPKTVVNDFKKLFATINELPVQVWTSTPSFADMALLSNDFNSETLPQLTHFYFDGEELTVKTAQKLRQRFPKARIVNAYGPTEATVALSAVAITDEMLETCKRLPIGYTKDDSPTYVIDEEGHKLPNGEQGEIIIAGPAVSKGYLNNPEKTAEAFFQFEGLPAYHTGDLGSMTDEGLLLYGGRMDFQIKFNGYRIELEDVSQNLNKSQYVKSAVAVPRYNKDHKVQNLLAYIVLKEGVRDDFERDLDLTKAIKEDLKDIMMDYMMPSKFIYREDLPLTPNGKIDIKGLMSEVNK
Procedure: as §1, with “To” for “The effect of the compounds of the invention on DltA enzymes has been based on the measure of their inhibition of DltA activity in vitro. To”
as §2, §3

[5] = recombinant DltA, 30min preincubation at room temperature, 0.5mM D-Alanine, 0.5-5µM ATP, read-out: E. feacium DltA IC50

| SMILES | IC50 [1, 5] | IC50 [2] | IC50 [3] | IC50 [4] | IC50 [1] |
| --- | --- | --- | --- | --- | --- |
| O=c1[nH]cnc2c(-c3ccc4c(c3)ncn4C3CCCCC3)sc(C3=CCNCC3)c12 [Example 37, 7-(1-cyclohexyl-1H-benzoimidazol-5-yl)-5-(1,2,3,6-tetrahydro-pyridin-4-yl)-3H-thieno[3,4-d]pyrimidin-4-one hydrochloride] | 0.042 µM | 0.068 µM | 0.025 µM | 0.66 µM |  |
| CN1CC=C(c2sc(-c3ccc4c(c3)ncn4C3CCCCC3)c3nc[nH]c(=O)c23)CC1 [Example 38, hydrochloride] |  | 0.13 µM | 0.042 µM | 0.91 µM | 0.13 µM |
| CCn1cnc2cc(-c3sc(N4CC[C@H](CO)C4)c4c(=O)[nH]cnc34)ccc21 [Example 45, 7-(1-ethyl-1H-benzoimidazol-5-yl)-5-((S)-3-hydroxymethyl-pyrrolidin-1-yl)-3H-thieno[3,4-d]pyrimidin-4-one] | 0.39 µM | 0.13 µM | 0.07 µM | 3.4 µM |  |
| COCCn1cnc2cc(-c3sc(N4CC[C@H](CO)C4)c4c(=O)[nH]cnc34)ccc21 [Example 46, 5-((S)-3-hydroxymethyl-pyrrolidin-1-yl)-7-[1-(2-methoxy-ethyl)-1H-benzoimidazol-5-yl]-3H-thieno[3,4-d]pyrimidin-4-one] | 0.44 µM | 0.15 µM | 0.15 µM | 5.1 µM |  |
| O=c1[nH]cnc2c(-c3ccc4c(c3)ncn4[C@@H]3CCCC[C@H]3F)sc(N3CC[C@H](CO)C3)c12 [Example 47, 7-[1-((1R,2R)-2-fluoro-cyclohexyl)-1H-benzoimidazol-5-yl]-5-((S)-3-hydroxymethyl-pyrrolidin-1-yl)-3H-thieno[3,4-d]pyrimidin-4-one] | 0.11 µM | 0.077 µM | 0.046 µM | 2.6 µM |  |
| O=c1[nH]cnc2c(-c3ccc4c(c3)ncn4C3CCCOC3)sc(N3CC[C@H](CO)C3)c12 (stereo partly drawn) [Example 49, 5-((S)-3-hydroxymethyl-pyrrolidin-1-yl)-7-[1-(tetrahydro-pyran-3-yl)-1-H-benzoimidazol-5-yl]-3H-thieno[3,4-d]pyrimidin-4-one] | 0.16 µM | 0.097 µM | 0.082 µM | 3.3 µM |  |
| O=c1[nH]cnc2c1c(CCCO)cn2-c1ccc2c(c1)ncn2C1CCCCC1 [Example 51, 7-(1-Cyclohexyl-1H-benzoimidazol-5-yl)-5-(3-hydroxy-propyl)-3,7-dihydro-pyrrolo[2,3-d]pyrimidin-4-one] | 1.2 µM | 1.1 µM | 0.33 µM | 4.5 µM |  |
| O=c1[nH]cnc2c1c(C1=CCNCC1)cn2-c1ccc2c(c1)ncn2C1CCCCC1 [Example 52, 7-(1-cyclohexyl-1H-benzoimidazol-5-yl)-5-(1,2,3,6-tetrahydro-pyridin-4-yl)-3,7-dihydro-pyrrolo[2,3-d]pyrimidin-4-one hydrochloride] | 0.12 µM | 0.15 µM | 0.026 µM | 0.35 µM |  |
| CN1CC=C(c2cn(-c3ccc4c(c3)ncn4C3CCCCC3)c3nc[nH]c(=O)c23)CC1 [Example 53, 7-(1-cyclohexyl-1H-benzoimidazol-5-yl)-5-(1-methyl-1,2,3,6-tetrahydro-pyridin-4-yl)-3,7-dihydro-pyrrolo[2,3-d]pyrimidin-4-one] | 0.094 µM | 0.15 µM | 0.013 µM | 0.59 µM |  |
| O=c1[nH]cnc2c1c(C1CCC(CO)C1)cn2-c1ccc2c(c1)ncn2C1CCCCC1 (stereo not drawn) [Example 58, 7-(1-Cyclohexyl-1H-benzoimidazol-5-yl)-5-(3-hydroxymethyl-cyclopentyl)-3,7-dihydro-pyrrolo[2,3-d]pyrimidin-4-one] | 0.48 µM | 0.81 µM | 0.19 µM | 6.1 µM |  |
| O=c1[nH]cnn2c(-c3ccc4c(c3)ncn4C3CCCCC3)cc(N3CC[C@H](CO)C3)c12 [Example 63, 7-(1-Cyclohexyl-1H-benzoimidazol-5-yl)-5-((S)-3-hydroxymethyl-pyrrolidin-1-yl)-3H-pyrrolo[2,1-f][1,2,4]triazin-4-one] | 1.1 µM | 0.46 µM | 0.35 µM | 25 µM |  |
| O=c1[nH]cnc2c(-c3ccc4c(c3)ncn4C3CCCCC3)cn(CCCO)c12 [Example 67, 7-(1-Cyclohexyl-1H-benzimidazol-5-yl)-5-(3-hydroxy-propyl)-3,5-dihydro-pyrrolo[3,2-d]pyrimidin-4-one] | 0.93 µM | 0.15 µM | 0.18 µM | 3.8 µM |  |
